In assay [1] the target is T1, GCK (Homo sapiens, UniProt Q12851).
T1 sequence (Q12851 1-820): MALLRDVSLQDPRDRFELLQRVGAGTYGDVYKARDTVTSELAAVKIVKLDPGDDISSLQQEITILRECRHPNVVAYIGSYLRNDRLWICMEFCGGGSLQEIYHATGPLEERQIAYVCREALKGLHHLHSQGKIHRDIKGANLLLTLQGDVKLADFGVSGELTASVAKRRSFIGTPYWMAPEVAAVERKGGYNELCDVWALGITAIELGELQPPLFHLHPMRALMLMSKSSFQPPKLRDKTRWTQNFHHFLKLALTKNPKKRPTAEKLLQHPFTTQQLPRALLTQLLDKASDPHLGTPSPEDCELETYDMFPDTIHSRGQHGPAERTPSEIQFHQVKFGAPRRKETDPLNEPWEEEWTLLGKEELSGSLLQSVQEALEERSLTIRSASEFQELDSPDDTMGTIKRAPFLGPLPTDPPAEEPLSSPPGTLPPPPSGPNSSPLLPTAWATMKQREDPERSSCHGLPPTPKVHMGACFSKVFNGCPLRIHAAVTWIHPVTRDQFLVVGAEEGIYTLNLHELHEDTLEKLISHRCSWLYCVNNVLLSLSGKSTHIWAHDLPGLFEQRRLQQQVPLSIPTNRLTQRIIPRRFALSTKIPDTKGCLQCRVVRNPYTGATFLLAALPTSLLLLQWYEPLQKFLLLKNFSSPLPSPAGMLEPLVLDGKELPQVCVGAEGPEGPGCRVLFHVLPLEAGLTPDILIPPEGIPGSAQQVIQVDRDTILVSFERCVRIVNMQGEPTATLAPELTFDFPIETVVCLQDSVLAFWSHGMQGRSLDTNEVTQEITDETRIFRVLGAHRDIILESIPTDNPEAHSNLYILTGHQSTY
The assay is described as follows: Kinase inhibitory activity, IC50. In kind it is biochemical. The method, then: (§1) The inhibitory activities of the compounds of the present invention against two kinases, GCK and ACK1, were measured, and the IC50 values thereof were calculated. As a control, the following compound GNF7 was used.

Assay [2] concerns the target ACK1 (Homo sapiens, UniProt Q07912). Put plainly: Kinase inhibitory activity, IC50. In kind it is biochemical. The method, then: as §1
For assay [3], the system named is Ba/F3 (parental). The assay is described as follows: Inhibition of cell proliferation (GI50). Format: cell-based. As to conditions: Mus musculus, BaF3; Ba/F3 (parental) cell line; read-out: Proliferation inhibitory activity (GI50, μM) Ba/F3 (parental). The method, then:
The inhibitory activities of the compounds of the present invention against the proliferation of the Ba/F3 (parental) cell line were measured and the GI50 values thereof were calculated.

Assay [4] has as its system OCI-AML3 (N-Ras Q61L). Put plainly: Inhibition of cell proliferation (GI50). In kind it is cell-based. Particulars: Homo sapiens, OCI-AML-3; OCI-AML3 cell line; read-out: Proliferation inhibitory activity (GI50, μM) OCI-AML3 (N-Ras Q61L). As for the experimental part: (§2) The inhibitory activities of the compounds of the present invention against the proliferation of the mt-NRAS (G12D) Ba/F3 and […] (mt-NRAS) cell lines were measured and the GI50 values thereof were calculated.
Referring to the results in Table 2, it can be seen that the compound of the present invention has inhibitory activity against the proliferation of the human acute myeloid leukemia cell line (OCI-AML3) having the NRAS mutant gene, and the effect thereof is remarkable. Therefore, it can be seen that the compound of the present invention is particularly effective as a therapeutic agent for acute myeloid leukemia (AML).

Assay [5] concerns Ba/F3 (N-Ras G12D). Put plainly: Inhibition of cell proliferation (GI50). Format: cell-based. As to conditions: Mus musculus, BaF3; mt-NRAS (G12D) Ba/F3 cell line; read-out: Proliferation inhibitory activity (GI50, μM) Ba/F3 (N-Ras G12D). The method, then:
as §2

pIC50: −log10 of the molar value.

ACK1, sequence (Q07912 whole entry): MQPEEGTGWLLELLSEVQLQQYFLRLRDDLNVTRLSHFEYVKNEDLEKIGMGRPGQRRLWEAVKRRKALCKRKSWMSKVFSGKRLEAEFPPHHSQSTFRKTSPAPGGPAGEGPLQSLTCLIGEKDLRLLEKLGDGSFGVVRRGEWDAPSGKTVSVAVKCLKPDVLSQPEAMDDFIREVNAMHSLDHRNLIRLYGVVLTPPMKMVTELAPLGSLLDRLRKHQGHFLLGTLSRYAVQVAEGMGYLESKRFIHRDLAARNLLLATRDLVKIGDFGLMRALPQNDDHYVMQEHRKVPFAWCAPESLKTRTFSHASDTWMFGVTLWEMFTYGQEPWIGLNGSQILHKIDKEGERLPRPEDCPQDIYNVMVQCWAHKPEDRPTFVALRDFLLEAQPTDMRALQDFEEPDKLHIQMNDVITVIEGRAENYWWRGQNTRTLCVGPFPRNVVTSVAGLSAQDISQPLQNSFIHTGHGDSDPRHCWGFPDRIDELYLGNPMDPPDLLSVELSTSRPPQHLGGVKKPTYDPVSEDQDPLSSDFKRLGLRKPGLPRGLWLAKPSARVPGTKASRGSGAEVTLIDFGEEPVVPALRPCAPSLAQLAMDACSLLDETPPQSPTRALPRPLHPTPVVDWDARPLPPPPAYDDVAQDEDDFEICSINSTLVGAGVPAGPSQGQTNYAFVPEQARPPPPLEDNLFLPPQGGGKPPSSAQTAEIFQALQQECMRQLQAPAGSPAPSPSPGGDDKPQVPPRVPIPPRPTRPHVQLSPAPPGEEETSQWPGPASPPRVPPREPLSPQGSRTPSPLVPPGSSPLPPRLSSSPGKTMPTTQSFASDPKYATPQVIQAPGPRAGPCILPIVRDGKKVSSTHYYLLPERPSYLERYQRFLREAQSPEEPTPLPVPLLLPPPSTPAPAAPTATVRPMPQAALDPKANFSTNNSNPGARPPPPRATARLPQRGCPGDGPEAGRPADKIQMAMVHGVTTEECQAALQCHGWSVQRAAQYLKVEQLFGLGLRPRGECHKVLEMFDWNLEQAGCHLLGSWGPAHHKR

As usually defined, the pIC50 is −log10 of the IC50, conventionally taken in molar units. Higher therefore signals a low IC50. `Cc1ccc(Nc2ncc3cc(-c4cc(NC(=O)c5cccc(C(F)(F)F)c5)ccc4C)nc(Cl)c3n2)cn1` [Compound No. 1, N-(3-(8-chloro-2-((6-methylpyridin-3-yl)amino)pyrido[3,4-d]pyrimidin-6-yl)-4-methylphenyl)-3-(trifluoromethyl)benzamide]: the pIC50 in assay [1] was < 5.00; in assay [2] it was 6.00 to 7.00. Also, the GI50 in assay [3] is > 5 µM; in assay [4], < 0.5 µM; in assay [5], < 0.5 µM.
As for `C=Cc1nc(-c2cc(NC(=O)c3cccc(C(F)(F)F)c3)ccc2C)cc2cnc(Nc3ccc(C)nc3)nc12` [Compound No. 2, N-(4-methyl-3-(2-((6-methylpyridin-3-yl)amino)-8-vinylpyrido[3,4-d]pyrimidin-6-yl)phenyl)-3-(trifluoromethyl)benzamide], the GI50 in assay [3] was 3 to 5 µM; in assay [4], 0.5 to 3 µM; in assay [5], < 0.5 µM.
Regarding `CCc1nc(-c2cc(NC(=O)c3cccc(C(F)(F)F)c3)ccc2C)cc2cnc(Nc3ccc(C)nc3)nc12` [Compound No. 3, N-(3-(8-ethyl-2-((6-methylpyridin-3-yl)amino)pyrido[3,4-d]pyrimidin-6-yl)-4-methylphenyl)-3-(trifluoromethyl)benzamide], the negative-log IC50 (pIC50) in assay [1] is < 5.00; in assay [2], 6.00 to 7.00. For the same molecule, the GI50 is > 5 µM in assay [3], 0.5 to 3 µM in assay [4] and 0.5 to 3 µM in assay [5].
Turning to `COc1nc(-c2cc(NC(=O)c3cccc(C(F)(F)F)c3)ccc2C)cc2cnc(Nc3ccc(C)nc3)nc12` [Compound No. 8, N-(3-(8-methoxy-2-((6-methylpyridin-3-yl)amino)pyrido[3,4-d]pyrimidin-6-yl)-4-methylphenyl)-3-(trifluoromethyl)benzamide], the GI50 in assay [3] is 3 to 5 µM; in assay [4], < 0.5 µM; in assay [5], 0.5 to 3 µM.
The corresponding values for `Cc1ccc(Nc2ncc3cc(-c4cc(NC(=O)c5ccc(CN6CCOCC6)c(C(F)(F)F)c5)ccc4C)ncc3n2)cn1` [Compound No. 12, N-(4-methyl-3-(2-((6-methylpyridin-3-yl)amino)pyrido[3,4-d]pyrimidin-6-yl)phenyl)-4-(morpholinemethyl)-3-(trifluoromethyl)benzamide] are > 5 µM, < 0.5 µM and < 0.5 µM.
As to `Cc1ccc(Nc2ncc3cc(-c4cc(NC(=O)c5cc(-n6cnc(C)c6)cc(C(F)(F)F)c5)ccc4C)ncc3n2)cn1` [Compound No. 13, 3-(4-methyl-1H-imidazol-1-yl)-N-(4-methyl-3-(2-((6-methylpyridin-3-yl)amino)pyrido[3,4-d]pyrimidin-6-yl)phenyl)-5-(trifluoromethyl)benzamide], the GI50 is > 5 µM in assay [3], < 0.5 µM in assay [4] and < 0.5 µM in assay [5].
As for `Cc1ccc(Nc2ncc3cc(-c4cc(NC(=O)c5cc(N6CCOCC6)cc(C(F)(F)F)c5)ccc4C)ncc3n2)cn1` [Compound No. 14, N-(4-methyl-3-(2-((6-methylpyridin-3-yl)amino)pyrido[3,4-d]pyrimidin-6-yl)phenyl)-3-morpholino-5-(trifluoromethyl)benzamide], the GI50 in assay [3] was 0.5 to 3 µM; in assay [4] it was < 0.5 µM; in assay [5] it was < 0.5 µM.
As to `Cc1ccc(NC(=O)c2cccc(C(F)(F)F)c2)cc1-c1cc2cnc(N)nc2cn1` [Compound No. 17, N-(3-(2-aminopyrido[3,4-d]pyrimidin-6-yl)-4-methylphenyl)-3-(trifluoromethyl)benzamide], the GI50 in assay [3] was > 5 µM; in assay [4] it was < 0.5 µM; in assay [5], < 0.5 µM.
As to `Cc1ccc(NC(=O)c2cccc(C(F)(F)F)c2)cc1-c1cc2cnc(NCCO)nc2cn1` [Compound No. 18, N-(3-(2-((2-hydroxyethyl)amino)pyrido[3,4-d]pyrimidin-6-yl)-4-methylphenyl)-3-(trifluoromethyl)benzamide], the negative-log IC50 (pIC50) in assay [1] and in assay [2] was 6.00 to 7.00 each time. For the same molecule, the GI50 in assay [3] is > 5 µM; in assay [4], < 0.5 µM; in assay [5], < 0.5 µM.
For the molecule `Cc1ccc(NC(=O)c2cccc(C(F)(F)F)c2)cc1-c1cc2cnc(NC3CC3)nc2cn1` [Compound No. 19, N-(3-(2-(cyclicpropylamino)-pyrido[3,4-d]pyrimidin-6-yl)-4-methylphenyl)-3-(trifluoromethyl)benzamide], the negative-log IC50 (pIC50) in assay [1] and in assay [2] was 6.00 to 7.00 throughout. Moreover, the results for the GI50 in assay [3], in assay [4] and in assay [5] were 0.5 to 3 µM, < 0.5 µM and < 0.5 µM, respectively.
On to `Cc1ccncc1Nc1ncc2cc(-c3cc(NC(=O)c4cccc(C(F)(F)F)c4)ccc3C)ncc2n1` [Compound No. 23, N-(4-methyl-3-(2-((4-methylpyridin-3-yl)amino)pyrido[3,4-d]pyrimidin-6-yl)phenyl)-3-(trifluoromethyl)benzamide], for which the GI50 in assay [3], in assay [4] and in assay [5] was < 0.5 µM throughout.
`Cc1ccc(Nc2ncc3cc(-c4cc(NC(=O)c5cccc(C(F)(F)F)c5)ccc4C)ncc3n2)c(C)n1` [Compound No. 24, N-(3-(2-((2,6-dimethylpyridin-3-yl)amino)pyrido[3,4-d]pyrimidin-6-yl)-4-methylphenyl)-3-(trifluoromethyl)benzamide]: the GI50 in assay [3] is > 5 µM; in assay [4], < 0.5 µM; in assay [5], < 0.5 µM.
As to `Cc1ccc(Nc2ncc3c(n2)N(C)C(=O)N(c2cc(NC(=O)c4cccc(C(F)(F)F)c4)ccc2C)C3)cn1` [GNF 7, reference compound], the pIC50 in assay [1] and in assay [2] was > 7.00 throughout. Besides, the GI50 in assay [3] was 3 to 5 µM; in assay [4] it was < 0.5 µM; in assay [5] it was 0.5 to 3 µM.

These data come from patent US20230120564A1, “PYRIDO[3,4-D]PYRIMIDINE DERIVATIVE AND THERAPEUTIC PHARMACEUTIC COMPOSITION COMPRISING SAME” (KOREA INSTITUTE OF SCIENCE AND TECHNOLOGY, priority 2020, published 2023).
